# Literature values, collected in US7393692B2, “SERS method for rapid pharmacokinetic analysis of drugs in saliva” (Real-Time Analyzers, Inc., priority 2004, dated 2008).
# Legend:
# [1] = patient dependent
# [2] = biological target: T1, dihydropyrimidine dehydrogenase (DPD) (Homo sapiens, UniProt Q12882); details: patient with the normal amount of DPD
# T1 construct: endogenous in cells; host or cells: human individuals / hypothetical cancer patients (in vivo metabolism)
# T1 sequence (Q12882 4-1025): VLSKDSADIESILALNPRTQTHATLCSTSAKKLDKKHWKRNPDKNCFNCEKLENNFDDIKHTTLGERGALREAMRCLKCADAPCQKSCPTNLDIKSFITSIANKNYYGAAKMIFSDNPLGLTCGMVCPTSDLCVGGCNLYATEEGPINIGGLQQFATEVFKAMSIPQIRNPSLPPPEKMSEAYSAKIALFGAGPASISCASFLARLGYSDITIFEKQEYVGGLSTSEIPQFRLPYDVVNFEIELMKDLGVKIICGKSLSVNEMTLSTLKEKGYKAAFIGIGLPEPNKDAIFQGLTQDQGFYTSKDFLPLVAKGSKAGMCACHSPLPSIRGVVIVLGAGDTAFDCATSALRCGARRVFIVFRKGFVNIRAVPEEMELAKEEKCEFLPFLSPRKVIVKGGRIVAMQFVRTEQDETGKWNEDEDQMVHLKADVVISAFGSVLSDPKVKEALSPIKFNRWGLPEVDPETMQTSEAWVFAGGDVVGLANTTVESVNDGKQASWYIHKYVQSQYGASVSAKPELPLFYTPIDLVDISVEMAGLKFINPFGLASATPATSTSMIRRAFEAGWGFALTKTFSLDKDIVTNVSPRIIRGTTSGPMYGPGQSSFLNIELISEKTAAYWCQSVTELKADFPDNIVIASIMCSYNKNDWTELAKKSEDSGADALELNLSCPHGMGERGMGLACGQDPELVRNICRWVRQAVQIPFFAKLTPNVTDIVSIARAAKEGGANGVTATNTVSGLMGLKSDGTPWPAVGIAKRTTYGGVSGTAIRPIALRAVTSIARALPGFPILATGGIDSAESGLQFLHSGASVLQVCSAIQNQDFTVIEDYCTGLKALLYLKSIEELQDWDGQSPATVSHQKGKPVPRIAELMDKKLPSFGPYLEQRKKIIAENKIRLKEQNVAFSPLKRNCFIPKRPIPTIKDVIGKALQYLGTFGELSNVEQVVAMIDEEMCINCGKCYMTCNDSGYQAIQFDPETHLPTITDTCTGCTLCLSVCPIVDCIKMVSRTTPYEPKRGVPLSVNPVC
compound,measurement,setting,value
"O=c1[nH]cc(F)c(=O)[nH]1 [5-FU, 5-fluorouracil]","5-FU concentration in saliva, maximum",[1]; closely matches plasma,15 to 28 µg/mL
same,"5-FU concentration in saliva, three hour minimum",[1]; three hour minimum,0.1 µg/mL
same,5-FU metabolized to 5-FUH2 on average,[2],about 50%
